Data set [1] has as its system alopecia which is induced by cyclophosphamide. The settings on record: rats.
Data set [2] concerns arabinoside-C induced alopecia. The experiment in a line: topical application in glycerin to back of arabinoside-C injected rats. The settings on record: for Grade of Alopecia: arabinoside-C 25 mg/kg 2 h after each treatment. Further details: key to Grade of Alopecia: 0 = no alopecia; 1 = less than 20% alopecia; 2 = less than 50% alopecia; 3 = more than 50% alopecia; 4 = total alopecia. The format is in vivo. On the procedure:
A stock composition of 1 mg. of ammonium trichloro (O,O′-dioxoethylene) tellurate in 1 ml. of glycerin was prepared. The stock composition was diluted with glycerin to give the following concentrations per ml. so that the stated dose could be applied topically by application of 1 ml. of solution. The solution was applied to the entire back surface of rats once daily for a period of 7 days. Two hours after each treatment the rats were injected with 25 mg/kg of arabinoside-C once daily. Control rats were treated with a glycerin and injected with arabinoside-C.

Data set [3] deals with alopecia under carboplatinum/etoposide chemotherapy. The experiment in a line: phase II chemotherapy trial, alopecia score. The data set is classed as in vivo, patients. Conditions: Group II: tellurate 3 mg/m^2 three times a week plus carboplatinum/etoposide chemotherapy; 12 weeks after chemotherapy. On the procedure:
A phase II chemotherapy trial was carried out in patients having unresectable and metastatic non-small cell lung tumors. The chemotherapy was based on carboplatinum 300.0 mg/m^2/IV daily and etoposide 200.0 mg/m^2 on day 3, 5 and 7 for a total of 12 weeks of chemotherapy which was given to group I. In addition to the same chemotherapy, ammonium trichloro (O,O′-dioxoethylene)tellurate was given to Group II at a dose of 3 mg/m^2 three times a week starting two weeks before the chemotherapy and continued for 12 weeks after the chemotherapy. The alopecia of both groups was observed 12 weeks after the chemotherapy and was as follows: […]

Data set [4] relates to arabinoside-C induced alopecia. Briefly: arabinoside-C induced alopecia in 8 day old rats, tellurate given i.p. (method of Hussein et al.). The format is in vivo, Sprauge Dawley rats. Conditions: for effect on alopecia of a tellurate regimen / No. of subjects with alopecia grade 0 (no detectable alopecia) / No. of subjects with alopecia grade 1+ (mild, hair loss <50%) / No. of subjects with alopecia grade 2+ (moderately severe, hair loss >50%) / No. of subjects with alopecia grade 3+ (total or virtually total, hair loss >79%): rats; for No. of subjects with alopecia grade 0 (no detectable alopecia) / No. of subjects with alopecia grade 1+ (mild, hair loss <50%) / No. of subjects with alopecia grade 2+ (moderately severe, hair loss >50%) / No. of subjects with alopecia grade 3+ (total or virtually total, hair loss >79%): day 9. On the procedure: 28, 1990, pp. 1564-1566. […] The cycle of treatment lasted 7 days. […] A second experiment was carried out using the same procedure which is outlined above.

The mark [5] stands for this setting: tellurate 0.5 mg/Kg IP daily ×7 days with cyclophosphamide 20 mg/kg i.p. ×7 days, listed as ammonium trichloro (0,0′-dioxoethylene) tellurate.
Setting [6] is: tellurate 0.5 mg/Kg IP daily ×7 days with arabinoside-C 25 mg/kg i.p., first experiment.
Setting [7] is: tellurate 0.5 mg/Kg IP daily ×7 days with arabinoside-C 50 mg/kg i.p., first experiment.
The mark [8] stands for this setting: tellurate 0.5 mg/Kg IP every other day ×7 days with arabinoside-C 25 mg/kg i.p., first experiment.
Setting [9] is: tellurate 0.5 mg/Kg IP every other day ×7 days with arabinoside-C 50 mg/kg i.p., first experiment.
The mark [10] stands for this setting: tellurate 0.5 mg/Kg IP every other day ×7 days with arabinoside-C 50 mg/kg i.p., second experiment.
Where [11] appears, read: arabinoside-C 25 mg/kg daily ×7 days alone, first experiment.
Setting [12] is: arabinoside-C 50 mg/kg i.p. ×7 days alone, first experiment.
[13] abbreviates: cyclophosphamide 20 mg/kg i.p. ×7 days alone.

Each structure is given as a SMILES string. Several values for one entry are separate records, joined by “and”; a condition that tells them apart may be missing. Equal entries are not always repeated. Where two headings read alike, the source gives them in different places.

Turning to `Cl[TeH]1(Cl)(Cl)OCCO1.N` [ammonium-trichloro (O,O′-dioxoethylene) tellurate], the “protection against cyclophosphamide induced alopecia” value in data set [1] (0.5 mg/kg/i.p. in conjunction with cyclophosphamide) was “mild protection”. Moreover, the “No. of subjects with alopecia grade 1+ (mild, hair loss <50%)” value (“No. of subjects … (mild, hair loss <50%)” for short) in data set [1] (tellurate 0.5 mg/Kg IP daily ×7 days with cyclophosphamide 20 mg/kg i.p. ×7 days) stood at 4; in data set [1] (setting [5]) it was 2; in data set [4] (setting [6]) it was 4; in data set [4] (setting [7]), 3; in data set [4] (setting [8]), 4; in data set [4] (setting [9]), 1. Also, the “No. of subjects … (mild, hair loss <50%)” value in data set [4] (setting [10]) amounted to 1. The “No. of subjects with alopecia grade 0 (no detectable alopecia)” value (shortened to “No. of subjects … (no detectable alopecia)”) was found to be 2 in data set [1] (setting [5]); 0 in data set [4] (setting [6]); 6 in data set [4] (tellurate 0.5 mg/Kg IP daily ×7 days with arabinoside-C 25 mg/kg i.p., second experiment); 0 in data set [4] (setting [7]); 6 in data set [4] (tellurate 0.5 mg/Kg IP daily ×7 days with arabinoside-C 50 mg/kg i.p., second experiment); 0 in data set [4] (setting [8]). Also, the “No. of subjects … (no detectable alopecia)” value in data set [4] (tellurate 0.5 mg/Kg IP every other day ×7 days with arabinoside-C 25 mg/kg i.p., second experiment) is 6; in data set [4] (setting [9]), 0. The “No. of subjects with alopecia grade 2+ (moderately severe, hair loss >50%)” value in data set [1] (setting [5]) is recorded as 1; in data set [4] (setting [6]), 0; in data set [4] (setting [7]) it was 1; in data set [4] (setting [8]) it was 0; in data set [4] (setting [9]) it was 3; in data set [4] (setting [10]), 2. The “Grade of Alopecia” value was 3 (3 = more than 50% alopecia) in data set [2] (10 ug/rat topical in glycerin once daily 7 days); 1 (1 = less than 20% alopecia) in data set [2] (20 ug/rat topical in glycerin once daily 7 days); 0 in data set [2] (50 ug/rat topical in glycerin once daily 7 days); 2 (2 = less than 50% alopecia) in data set [2] (100 ug/rat topical in glycerin once daily 7 days); 3 (3 = more than 50% alopecia) in data set [2] (200 ug/rat topical in glycerin once daily 7 days). Further, in data set [2] (50 ug topical, arabinoside-C 25 mg/kg), the “rats that showed 0% alopecia” value was found to be 100%. Further, the “dose response of topical effect on alopecia” value in data set [2] (10-200 ug/rat topical, arabinoside-C 25 mg/kg) is listed as “A dose response effect was observed”. Also, the “number with alopecia score 0” value in data set [3] is on record as 122. The “number with alopecia score I (casual alopecia)” value in data set [3] is 26. In addition, the “number with alopecia score II (>50% alopecia)” value in data set [3] came to 40. The “number with alopecia score III (<50% alopecia)” value in data set [3] worked out at 12. Besides, the “number with alopecia score IV (total alopecia)” value in data set [3] is 0. For the same compound, the “percentage with alopecia score 0” value in data set [3] was 61.00%. Further, the “percentage with alopecia score I (casual alopecia)” value in data set [3] worked out at 13.00%. Also, in data set [3], the “percentage with alopecia score II (>50% alopecia)” value stood at 20.00%. The “percentage with alopecia score III (<50% alopecia)” value in data set [3] is 6.00%. Also, the “percentage with alopecia score IV (total alopecia)” value in data set [3] is 0.00%. Moreover, the “effect on alopecia of a tellurate regimen” value in data set [4] (given daily) was “almost completely avoids alopecia”; in data set [4] (given every other day) it was “provides some protection from alopecia”. The “histological examination of the skin” value in data set [4] (subjects treated with arabinoside-C and tellurate) is “no hair loss or reduced hair loss”. The “No. of subjects with alopecia grade 3+ (total or virtually total, hair loss >79%)” value is on record as 0 in data set [4] (setting [6]); 0 in data set [4] (setting [7]); 0 in data set [4] (setting [8]); 0 in data set [4] (setting [9]); 3 in data set [4] (setting [10]).
In the case of `Nc1ccn([C@@H]2O[C@H](CO)[C@@H](O)[C@@H]2O)c(=O)n1` [arabinoside-C, reference compound], the alopecia in data set [2] (all control animals: glycerin topical, arabinoside-C 25 mg/kg once daily) is 100%. Besides, the “No. of subjects … (no detectable alopecia)” value in data set [4] (setting [11]) and in data set [4] (setting [12]) was 0 each time. For the same compound, the “No. of subjects … (mild, hair loss <50%)” value in data set [4] (setting [11]) and in data set [4] (setting [12]) was 0 each time. Further, the “No. of subjects with alopecia grade 2+ (moderately severe, hair loss >50%)” value in data set [4] (setting [11]) and in data set [4] (setting [12]) was 0 throughout. For the same compound, the “No. of subjects with alopecia grade 3+ (total or virtually total, hair loss >79%)” value in data set [4] (setting [11]) is 3; in data set [4] (arabinoside-C 25 mg/kg i.p. ×7 days alone, second experiment), 8; in data set [4] (setting [12]), 4; in data set [4] (arabinoside-C 50 mg/kg i.p. ×7 days alone, second experiment) it was 8. Moreover, the “histological examination of the skin” value in data set [4] (arabinoside-C treated subjects) is “almost complete loss of hair follicles”.
As for `O=P1(N(CCCl)CCCl)NCCCO1` (centres unmarked) [cyclophosphamide, reference compound], in data set [1] (setting [13]), the “No. of subjects … (no detectable alopecia)” value amounted to 1; the “No. of subjects … (mild, hair loss <50%)” value was 3 and 2. In addition, the “No. of subjects … (mild, hair loss <50%)” value in data set [1] (cyclophosphamide 20 mg/kg i.p. ×7 days alone, listed as cyclosphosphamide) is reported as 10.
